Measured values taken from ChEMBL document CHEMBL3045610, “Pyridoquinolones containing azetidinones: synthesis and their biological evaluation” (2012).
≈ marks a conversion by molar mass, not a printed value.

How the values were obtained:
Type in all cases: functional
[1] = test system: Mycobacterium tuberculosis; test: Antimicrobial activity against Mycobacterium tuberculosis H37Rv by broth dilution method
[2] = test system: Aspergillus clavatus; test: Antifungal activity against Aspergillus clavatus by broth dilution method
[3] = test system: Aspergillus niger; test: Antifungal activity against Aspergillus niger by broth dilution method
[4] = test system: Candida albicans; test: Antifungal activity against Candida albicans by broth dilution method
[5] = test system: Streptococcus pyogenes; test: Antibacterial activity against Streptococcus pyogenes by broth dilution method
[6] = test system: Staphylococcus aureus; test: Antibacterial activity against Staphylococcus aureus by broth dilution method
[7] = test system: Pseudomonas aeruginosa; test: Antibacterial activity against Pseudomonas aeruginosa by broth dilution method
[8] = test system: Escherichia coli; test: Antibacterial activity against Escherichia coli by broth dilution method

Compound	MIC [1]	MIC [2]	MIC [3]	MIC [4]	MIC [5]	MIC [6]	MIC [7]	MIC [8]
CCOC(=O)c1c[nH]c2c(ccc3nc(Cl)cc(C)c32)c1=O	500 µg/mL (≈ 1580 µM)	1000 µg/mL (≈ 3160 µM)	1000 µg/mL (≈ 3160 µM)	200 µg/mL (≈ 631 µM)	100 µg/mL (≈ 316 µM)	150 µg/mL (≈ 474 µM)	250 µg/mL (≈ 789 µM)	250 µg/mL (≈ 789 µM)
COc1ccc(/C=N/NC(=O)c2c[nH]c3c(ccc4nc(Cl)cc(C)c43)c2=O)cc1	–	500 µg/mL (≈ 1190 µM)	500 µg/mL (≈ 1190 µM)	500 µg/mL (≈ 1190 µM)	500 µg/mL (≈ 1190 µM)	500 µg/mL (≈ 1190 µM)	500 µg/mL (≈ 1190 µM)	250 µg/mL (≈ 594 µM)
Cc1cc(Cl)nc2ccc3c(=O)c(C(=O)N/N=C/c4cccc([N+](=O)[O-])c4O)c[nH]c3c12	62.5 µg/mL (≈ 138 µM)	500 µg/mL (≈ 1110 µM)	500 µg/mL (≈ 1110 µM)	200 µg/mL (≈ 443 µM)	500 µg/mL (≈ 1110 µM)	500 µg/mL (≈ 1110 µM)	200 µg/mL (≈ 443 µM)	150 µg/mL (≈ 332 µM)
CCn1cc(C(=O)O)c(=O)c2cc(F)c(N3CCNCC3)cc21 [NORFLOXACIN]	–	–	–	–	10 µg/mL (≈ 31.3 µM)	10 µg/mL (≈ 31.3 µM)	10 µg/mL (≈ 31.3 µM)	10 µg/mL (≈ 31.3 µM)
COc1ccc(C2C(Cl)C(=O)N2NC(=O)c2c[nH]c3c(ccc4nc(Cl)cc(C)c43)c2=O)cc1 (configuration not stated)	–	> 1000 µg/mL	> 1000 µg/mL	500 µg/mL (≈ 1010 µM)	500 µg/mL (≈ 1010 µM)	500 µg/mL (≈ 1010 µM)	250 µg/mL (≈ 503 µM)	250 µg/mL (≈ 503 µM)
O=C(N[C@H](CO)[C@H](O)c1ccc([N+](=O)[O-])cc1)C(Cl)Cl [CHLORAMPHENICOL]	–	–	–	–	50 µg/mL (≈ 155 µM)	50 µg/mL (≈ 155 µM)	50 µg/mL (≈ 155 µM)	50 µg/mL (≈ 155 µM)
Cc1cc(Cl)nc2ccc3c(=O)c(C(=O)NN)c[nH]c3c12	200 µg/mL (≈ 661 µM)	> 1000 µg/mL	> 1000 µg/mL	500 µg/mL (≈ 1650 µM)	200 µg/mL (≈ 661 µM)	250 µg/mL (≈ 826 µM)	200 µg/mL (≈ 661 µM)	100 µg/mL (≈ 330 µM)
Cc1cc(Cl)nc2ccc3c(=O)c(C(=O)N/N=C/c4ccccc4O)c[nH]c3c12	200 µg/mL (≈ 492 µM)	500 µg/mL (≈ 1230 µM)	500 µg/mL (≈ 1230 µM)	100 µg/mL (≈ 246 µM)	200 µg/mL (≈ 492 µM)	100 µg/mL (≈ 246 µM)	250 µg/mL (≈ 615 µM)	250 µg/mL (≈ 615 µM)
Cc1cc(Cl)nc2ccc3c(=O)c(C(=O)NN4C(=O)C(Cl)C4c4ccccc4Cl)c[nH]c3c12 (configuration not stated)	–	250 µg/mL (≈ 498 µM)	250 µg/mL (≈ 498 µM)	100 µg/mL (≈ 199 µM)	200 µg/mL (≈ 399 µM)	200 µg/mL (≈ 399 µM)	250 µg/mL (≈ 498 µM)	200 µg/mL (≈ 399 µM)
COc1ccccc1/C=N/NC(=O)c1c[nH]c2c(ccc3nc(Cl)cc(C)c32)c1=O	250 µg/mL (≈ 594 µM)	1000 µg/mL (≈ 2380 µM)	1000 µg/mL (≈ 2380 µM)	500 µg/mL (≈ 1190 µM)	250 µg/mL (≈ 594 µM)	250 µg/mL (≈ 594 µM)	250 µg/mL (≈ 594 µM)	100 µg/mL (≈ 238 µM)
Cc1cc(Cl)nc2ccc3c(=O)c(C(=O)NN4C(=O)C(Cl)C4c4ccccc4O)c[nH]c3c12 (configuration not stated)	500 µg/mL (≈ 1030 µM)	1000 µg/mL (≈ 2070 µM)	1000 µg/mL (≈ 2070 µM)	500 µg/mL (≈ 1030 µM)	500 µg/mL (≈ 1030 µM)	500 µg/mL (≈ 1030 µM)	200 µg/mL (≈ 414 µM)	100 µg/mL (≈ 207 µM)
Cc1cc(Cl)nc2ccc3c(=O)c(C(=O)NN4C(=O)C(Cl)C4c4cc([N+](=O)[O-])ccc4O)c[nH]c3c12 (configuration not stated)	–	500 µg/mL (≈ 946 µM)	500 µg/mL (≈ 946 µM)	250 µg/mL (≈ 473 µM)	500 µg/mL (≈ 946 µM)	500 µg/mL (≈ 946 µM)	500 µg/mL (≈ 946 µM)	250 µg/mL (≈ 473 µM)
Cc1cc(Cl)nc2ccc3c(=O)c(C(=O)NN4C(=O)C(Cl)C4c4cccc([N+](=O)[O-])c4O)c[nH]c3c12 (configuration not stated)	200 µg/mL (≈ 379 µM)	> 1000 µg/mL	> 1000 µg/mL	500 µg/mL (≈ 946 µM)	500 µg/mL (≈ 946 µM)	500 µg/mL (≈ 946 µM)	200 µg/mL (≈ 379 µM)	62.5 µg/mL (≈ 118 µM)
Cc1cc(Cl)nc2ccc3c(=O)c(C(=O)N/N=C/c4ccccc4)c[nH]c3c12	–	> 1000 µg/mL	> 1000 µg/mL	250 µg/mL (≈ 640 µM)	250 µg/mL (≈ 640 µM)	200 µg/mL (≈ 512 µM)	250 µg/mL (≈ 640 µM)	250 µg/mL (≈ 640 µM)
COc1cc(/C=N/NC(=O)c2c[nH]c3c(ccc4nc(Cl)cc(C)c43)c2=O)ccc1O	500 µg/mL (≈ 1140 µM)	1000 µg/mL (≈ 2290 µM)	1000 µg/mL (≈ 2290 µM)	250 µg/mL (≈ 572 µM)	200 µg/mL (≈ 458 µM)	100 µg/mL (≈ 229 µM)	500 µg/mL (≈ 1140 µM)	500 µg/mL (≈ 1140 µM)
Cc1cc(Cl)nc2ccc3c(=O)c(C(=O)N/N=C/c4cc([N+](=O)[O-])ccc4O)c[nH]c3c12	500 µg/mL (≈ 1110 µM)	1000 µg/mL (≈ 2210 µM)	1000 µg/mL (≈ 2210 µM)	200 µg/mL (≈ 443 µM)	250 µg/mL (≈ 553 µM)	200 µg/mL (≈ 443 µM)	100 µg/mL (≈ 221 µM)	62.5 µg/mL (≈ 138 µM)
NNC(=O)c1ccncc1 [ISONIAZID]	0.2 µg/mL (≈ 1.46 µM)	–	–	–	–	–	–	–
NYSTATIN	–	100 µg/mL	100 µg/mL	100 µg/mL	–	–	–	–
Cc1cc(Cl)nc2ccc3c(=O)c(C(=O)N/N=C/c4ccc(Cl)cc4)c[nH]c3c12	–	250 µg/mL (≈ 588 µM)	250 µg/mL (≈ 588 µM)	500 µg/mL (≈ 1180 µM)	250 µg/mL (≈ 588 µM)	250 µg/mL (≈ 588 µM)	1000 µg/mL (≈ 2350 µM)	500 µg/mL (≈ 1180 µM)
O=C(O)c1cn(C2CC2)c2cc(N3CCNCC3)c(F)cc2c1=O [CIPROFLOXACIN]	–	–	–	–	50 µg/mL (≈ 151 µM)	50 µg/mL (≈ 151 µM)	–	25 µg/mL (≈ 75.4 µM)
Cc1ccc(/C=N/NC(=O)c2c[nH]c3c(ccc4nc(Cl)cc(C)c43)c2=O)cc1	–	500 µg/mL (≈ 1240 µM)	500 µg/mL (≈ 1240 µM)	250 µg/mL (≈ 618 µM)	250 µg/mL (≈ 618 µM)	250 µg/mL (≈ 618 µM)	250 µg/mL (≈ 618 µM)	200 µg/mL (≈ 494 µM)
Cc1ccc(C2C(Cl)C(=O)N2NC(=O)c2c[nH]c3c(ccc4nc(Cl)cc(C)c43)c2=O)cc1 (configuration not stated)	–	> 1000 µg/mL	> 1000 µg/mL	200 µg/mL (≈ 416 µM)	250 µg/mL (≈ 519 µM)	250 µg/mL (≈ 519 µM)	250 µg/mL (≈ 519 µM)	250 µg/mL (≈ 519 µM)
COc1cc(C2C(Cl)C(=O)N2NC(=O)c2c[nH]c3c(ccc4nc(Cl)cc(C)c43)c2=O)ccc1O (configuration not stated)	–	500 µg/mL (≈ 974 µM)	500 µg/mL (≈ 974 µM)	1000 µg/mL (≈ 1950 µM)	1000 µg/mL (≈ 1950 µM)	1000 µg/mL (≈ 1950 µM)	500 µg/mL (≈ 974 µM)	250 µg/mL (≈ 487 µM)
Cc1cc(Cl)nc2ccc3c(=O)c(C(=O)N/N=C/c4ccccc4Cl)c[nH]c3c12	–	> 1000 µg/mL	500 µg/mL (≈ 1180 µM)	250 µg/mL (≈ 588 µM)	200 µg/mL (≈ 470 µM)	100 µg/mL (≈ 235 µM)	500 µg/mL (≈ 1180 µM)	500 µg/mL (≈ 1180 µM)
CC1(C)S[C@@H]2[C@H](NC(=O)[C@H](N)c3ccccc3)C(=O)N2[C@H]1C(=O)O [AMPICILLIN]	–	–	–	–	100 µg/mL (≈ 286 µM)	250 µg/mL (≈ 715 µM)	100 µg/mL (≈ 286 µM)	100 µg/mL (≈ 286 µM)
COc1ccccc1C1C(Cl)C(=O)N1NC(=O)c1c[nH]c2c(ccc3nc(Cl)cc(C)c32)c1=O (configuration not stated)	–	> 1000 µg/mL	> 1000 µg/mL	250 µg/mL (≈ 503 µM)	500 µg/mL (≈ 1010 µM)	250 µg/mL (≈ 503 µM)	1000 µg/mL (≈ 2010 µM)	500 µg/mL (≈ 1010 µM)
COC1=CC(=O)C[C@@H](C)[C@]12Oc1c(Cl)c(OC)cc(OC)c1C2=O [GRISEOFULVIN]	–	100 µg/mL (≈ 283 µM)	100 µg/mL (≈ 283 µM)	500 µg/mL (≈ 1420 µM)	–	–	–	–
Cc1cc(Cl)nc2ccc3c(=O)c(C(=O)NN4C(=O)C(Cl)C4c4ccccc4)c[nH]c3c12 (configuration not stated)	250 µg/mL (≈ 535 µM)	> 1000 µg/mL	> 1000 µg/mL	500 µg/mL (≈ 1070 µM)	250 µg/mL (≈ 535 µM)	250 µg/mL (≈ 535 µM)	250 µg/mL (≈ 535 µM)	100 µg/mL (≈ 214 µM)
Cc1cc(Cl)nc2ccc3c(=O)c(C(=O)NN4C(=O)C(Cl)C4c4ccc(Cl)cc4)c[nH]c3c12 (configuration not stated)	100 µg/mL (≈ 199 µM)	500 µg/mL (≈ 996 µM)	500 µg/mL (≈ 996 µM)	200 µg/mL (≈ 399 µM)	500 µg/mL (≈ 996 µM)	500 µg/mL (≈ 996 µM)	100 µg/mL (≈ 199 µM)	100 µg/mL (≈ 199 µM)
